# Reference: publication PMC3434693 (Drug and chemical toxicology, 2012)
# Tested on: C. elegans N2 Bristol strain
# Assay: C. elegans fecundity assay
# Format: in vivo, Caenorhabditis elegans
# Details: estimated concentration threshold, refined threshold-exposure stage; 6–7 days
smiles,measurement,value
"Cn1c(C(=O)NCCCc2c[nH]c(N)n2)cc(Br)c1Br [DHS, dihydrosventrin]",ECT (C. elegans),470 to 490 µM
